System: Panel, parental and outbred (CD-IGS) rat strains
Assay: Clinical chemistry endpoints of gentamicin-treated vs. vehicle rats
Details: for T-test value ALB / T-test value ALP / T-test value ALT / T-test value ANION GAP / T-test value AST / T-test value BICARB / T-test value BUN / T-test value CA / T-test value CHOL / T-test value CREAT / T-test value GGT / T-test value GLOB / T-test value GLU / T-test value K / T-test value NA / T-test value PHOS / T-test value TBIL / T-test value TP / T-test value TRIG: 240 mg/Kg gentamicin vs. vehicle
Text: Percent increase is defined as[(mean drug—mean vehicle control)/mean vehicle control×100] for each strain tested. The number of animals tested in each group is noted below the strain designation in parenthesis as #drug treated animals per #vehicle treated animals.
We sought to maximize the range of genetic susceptibility to the adverse drug effects across the strains.

With gentamicin the “nephrotoxic phenotypes at the first dose” value (120 mg/kg gentamicin, all strains (not shown)) was “did not produce a robust set of phenotypes, except in LEW rats”, the “T-test value ALB” value (BN rats) was 0.028 and the “T-test value ALP” value (BN rats) was 0.040. The “T-test value ALT” value (BN rats) was 0.618, the “T-test value ANION GAP” value (BN rats) was 0.369 and the “T-test value AST” value (BN rats) was 0.110. For the same substance, the “T-test value BICARB” value (BN rats) was 0.642, the “T-test value BUN” value (BN rats) was 0.003 and the “T-test value CA” value (BN rats) was 0.460. For the same substance, the “T-test value CHOL” value (BN rats) was 0.092, the “T-test value CREAT” value (BN rats) was 0.005 and the “T-test value GGT” value (BN rats) was 0.121. The “T-test value GLOB” value (BN rats) was 0.517, the “T-test value GLU” value (BN rats) was 0.937 and the “T-test value K” value (BN rats) was 0.264. For the same substance, the “T-test value NA” value (BN rats) was 0.036, the “T-test value PHOS” value (BN rats) was 0.021 and the “T-test value TBIL” value (BN rats) was 0.040. For the same substance, the “T-test value TP” value (BN rats) was 0.133, the “T-test value TRIG” value (BN rats) was 0.042 and the “T-test value ALB” value (BNxF344 rats) was 0.089. The “T-test value ALP” value (BNxF344 rats) was 0.000, the “T-test value ALT” value (BNxF344 rats) was 0.171 and the “T-test value ANION GAP” value (BNxF344 rats) was 0.770. The “T-test value AST” value (BNxF344 rats) was 0.005, the “T-test value BICARB” value (BNxF344 rats) was 0.765 and the “T-test value BUN” value (BNxF344 rats) was 0.000. The “T-test value CA” value (BNxF344 rats) was 0.397, the “T-test value CHOL” value (BNxF344 rats) was 0.216 and the “T-test value CREAT” value (BNxF344 rats) was 0.000. The “T-test value GLOB” value (BNxF344 rats) was 0.165, the “T-test value GLU” value (BNxF344 rats) was 0.434 and the “T-test value K” value (BNxF344 rats) was 0.899. For the same substance, the “T-test value NA” value (BNxF344 rats) was 0.128, the “T-test value PHOS” value (BNxF344 rats) was 0.657 and the “T-test value TBIL” value (BNxF344 rats) was 0.745. The “T-test value TP” value (BNxF344 rats) was 0.802, the “T-test value TRIG” value (BNxF344 rats) was 0.000 and the “T-test value ALB” value (CD-IGS rats) was 0.493. The “T-test value ALP” value (CD-IGS rats) was 0.312, the “T-test value ALT” value (CD-IGS rats) was 0.714 and the “T-test value ANION GAP” value (CD-IGS rats) was 0.222. The “T-test value AST” value (CD-IGS rats) was 0.740, the “T-test value BICARB” value (CD-IGS rats) was 0.030 and the “T-test value BUN” value (CD-IGS rats) was 0.013. The “T-test value CA” value (CD-IGS rats) was 0.078, the “T-test value CHOL” value (CD-IGS rats) was 0.742 and the “T-test value CREAT” value (CD-IGS rats) was 0.024. The “T-test value GGT” value (CD-IGS rats) was 0.331, the “T-test value GLOB” value (CD-IGS rats) was 0.252 and the “T-test value GLU” value (CD-IGS rats) was 0.104. The “T-test value K” value (CD-IGS rats) was 0.229, the “T-test value NA” value (CD-IGS rats) was 0.138 and the “T-test value PHOS” value (CD-IGS rats) was 0.620. For the same substance, the “T-test value TBIL” value (CD-IGS rats) was 0.720, the “T-test value TP” value (CD-IGS rats) was 0.807 and the “T-test value TRIG” value (CD-IGS rats) was 0.946. For the same substance, the “T-test value ALB” value (F344 rats) was 0.002, the “T-test value ALP” value (F344 rats) was 0.017 and the “T-test value ALT” value (F344 rats) was 0.108. The “T-test value ANION GAP” value (F344 rats) was 0.428, the “T-test value AST” value (F344 rats) was 0.304 and the “T-test value BICARB” value (F344 rats) was 0.080. For the same substance, the “T-test value BUN” value (F344 rats) was 0.015, the “T-test value CA” value (F344 rats) was 0.637 and the “T-test value CHOL” value (F344 rats) was 0.811. The “T-test value CREAT” value (F344 rats) was 0.006, the “T-test value GGT” value (F344 rats) was 0.363 and the “T-test value GLOB” value (F344 rats) was 0.170. For the same substance, the “T-test value GLU” value (F344 rats) was 0.169, the “T-test value K” value (F344 rats) was 0.287 and the “T-test value NA” value (F344 rats) was 0.020. The “T-test value PHOS” value (F344 rats) was 0.350, the “T-test value TBIL” value (F344 rats) was 0.969 and the “T-test value TP” value (F344 rats) was 0.000. The “T-test value TRIG” value (F344 rats) was 0.052, the “T-test value ALB” value (LEW rats) was 0.015 and the “T-test value ALP” value (LEW rats) was 0.419. The “T-test value ALT” value (LEW rats) was 0.080, the “T-test value ANION GAP” value (LEW rats) was 0.283 and the “T-test value AST” value (LEW rats) was 0.754. The “T-test value BICARB” value (LEW rats) was 0.061, the “T-test value BUN” value (LEW rats) was 0.002 and the “T-test value CA” value (LEW rats) was 0.000. For the same substance, the “T-test value CHOL” value (LEW rats) was 0.007, the “T-test value CREAT” value (LEW rats) was 0.006 and the “T-test value GLOB” value (LEW rats) was 0.167. The “T-test value GLU” value (LEW rats) was 0.318, the “T-test value K” value (LEW rats) was 0.349 and the “T-test value NA” value (LEW rats) was 0.361. For the same substance, the “T-test value PHOS” value (LEW rats) was 0.203, the “T-test value TBIL” value (LEW rats) was 0.648 and the “T-test value TP” value (LEW rats) was 0.102. The “T-test value TRIG” value (LEW rats) was 0.405, the “T-test value ALB” value (LEWxBN rats) was 0.081 and the “T-test value ALP” value (LEWxBN rats) was 0.005. The “T-test value ALT” value (LEWxBN rats) was 0.293, the “T-test value ANION GAP” value (LEWxBN rats) was 0.071 and the “T-test value AST” value (LEWxBN rats) was 0.417. For the same substance, the “T-test value BICARB” value (LEWxBN rats) was 0.076, the “T-test value BUN” value (LEWxBN rats) was 0.001 and the “T-test value CA” value (LEWxBN rats) was 0.000. The “T-test value CHOL” value (LEWxBN rats) was 0.533, the “T-test value CREAT” value (LEWxBN rats) was 0.002 and the “T-test value GLOB” value (LEWxBN rats) was 0.419. The “T-test value GLU” value (LEWxBN rats) was 0.016, the “T-test value K” value (LEWxBN rats) was 0.145 and the “T-test value NA” value (LEWxBN rats) was 0.955. For the same substance, the “T-test value PHOS” value (LEWxBN rats) was 0.431, the “T-test value TBIL” value (LEWxBN rats) was 0.060 and the “T-test value TP” value (LEWxBN rats) was 0.434. For the same substance, the “T-test value TRIG” value (LEWxBN rats) was 0.037, the “T-test value ALB” value (LEWxF344 rats) was 0.071 and the “T-test value ALP” value (LEWxF344 rats) was 0.144. The “T-test value ALT” value (LEWxF344 rats) was 0.380, the “T-test value ANION GAP” value (LEWxF344 rats) was 0.157 and the “T-test value AST” value (LEWxF344 rats) was 0.375. The “T-test value BICARB” value (LEWxF344 rats) was 0.114, the “T-test value BUN” value (LEWxF344 rats) was 0.019 and the “T-test value CA” value (LEWxF344 rats) was 0.777. For the same substance, the “T-test value CHOL” value (LEWxF344 rats) was 0.889.

— US20030237103A1, “Methods and compositions for pharmacological and toxicological evaluation of test agents” (priority 2002, published 2003)
